Our source for the T/C values is PubChem BioAssay AID180 (DTP/NCI, 2004).

Several values for one entry are separate records, joined by “and”; a condition that tells them apart may be missing. Identical values can stand only once.

In the assay the test system is BDF1 mice, Adenocarcinoma 755 s.c., tumor weight T/C. As to the kind of experiment: NCI In Vivo Anticancer Drug Screen. Data for tumor model Adenocarcinoma 755 (subcutaneous) in B6D2F1 (BDF1) mice. To be noted: endpoint: mean tumor weight, higher = larger tumour. Put shortly:
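Tumor-bearing mice receive test compound while controls get vehicle alone. Antitumor effect is scored from survival or tumor dimensions as a T/C quotient.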

The mark [1] stands for this setting: dose: 125.0 mg/kg/injection, schedule: Q01DX011 (ip), vehicle: methylcellulose (MC).
[2] abbreviates: dose: 7.0 mg/kg/injection, schedule: Q01DX011 (ip), vehicle: carboxymethylcellulose (CMC).
The mark [3] stands for this setting: dose: 14.0 mg/kg/injection, schedule: Q01DX011 (ip), vehicle: carboxymethylcellulose (CMC).
Where [4] appears, read: dose: 60.0 mg/kg/injection, schedule: Q01DX011 (ip), vehicle: carboxymethylcellulose (CMC).

On to `NC(CS)C(=O)O` (centres undefined) (tested in a mixture with another compound), for which the T/C reads like this: (dose: 150.0 mg/kg/injection, schedule: Q01DX011 (ip), vehicle: methylcellulose (MC)) 42 % of control; (dose: 150.0 mg/kg/injection, schedule: Q01DX011 (ip), vehicle: saline) 56 % of control and 61 % of control; (dose: 225.0 mg/kg/injection, schedule: Q01DX011 (ip), vehicle: methylcellulose (MC)) 31 % of control; (dose: 225.0 mg/kg/injection, schedule: Q01DX011 (ip), vehicle: saline) 18 % of control; (dose: 275.0 mg/kg/injection, schedule: Q01DX011 (ip), vehicle: saline) 55 % of control; (dose: 350.0 mg/kg/injection, schedule: Q01DX011 (ip), vehicle: methylcellulose (MC)) 18 % of control. The T/C is 35 % of control and 48 % of control (dose: 350.0 mg/kg/injection, schedule: Q01DX011 (ip), vehicle: saline); 19 % of control (dose: 500.0 mg/kg/injection, schedule: Q01DX011 (ip), vehicle: methylcellulose (MC)).
Regarding `Nc1nc(Cl)c2[nH]cnc2n1`, the T/C (dose: 31.0 mg/kg/injection, schedule: Q01DX011 (ip), vehicle: methylcellulose (MC)) is 60 % of control; the T/C (dose: 62.0 mg/kg/injection, schedule: Q01DX011 (ip), vehicle: methylcellulose (MC)) is 13 % of control; the T/C under setting [1] was 4 % of control.
As to `CCCCn1cnc2c(SC(C)C)nc(N)nc21`, the T/C is 64 % of control (dose: 1.56 mg/kg/injection, schedule: Q01DX011 (ip), vehicle: methylcellulose (MC)); 57 % of control (dose: 3.12 mg/kg/injection, schedule: Q01DX011 (ip), vehicle: methylcellulose (MC)); 14 % of control and 24 % of control (dose: 6.25 mg/kg/injection, schedule: Q01DX011 (ip), vehicle: methylcellulose (MC)); 3 % of control and 8 % of control (dose: 12.5 mg/kg/injection, schedule: Q01DX011 (ip), vehicle: methylcellulose (MC)).
Regarding `CCCOP(=S)(N1CC1C)N1CC1(C)C` (centres undefined), the T/C (dose: 0.5 mg/kg/injection, schedule: Q01DX011 (ip), vehicle: carboxymethylcellulose (CMC)) was 68 % of control; the T/C (dose: 1.0 mg/kg/injection, schedule: Q01DX011 (ip), vehicle: carboxymethylcellulose (CMC)) was 104 % of control; the T/C (dose: 12.0 mg/kg/injection, schedule: Q01DX011 (ip), vehicle: carboxymethylcellulose (CMC)) is 79 % of control; the T/C (dose: 24.0 mg/kg/injection, schedule: Q01DX011 (ip), vehicle: carboxymethylcellulose (CMC)) is 61 % of control.
On to `Nc1nc(N)c(N=O)c(Nc2ccc(Cl)c(Cl)c2)n1`, for which the T/C runs as follows: (dose: 1.75 mg/kg/injection, schedule: Q01DX011 (ip), vehicle: methylcellulose (MC)) 90 % of control; (dose: 3.0 mg/kg/injection, schedule: Q01DX011 (ip), vehicle: carboxymethylcellulose (CMC)) 76 % of control; (dose: 3.5 mg/kg/injection, schedule: Q01DX011 (ip), vehicle: methylcellulose (MC)) 77 % of control; (dose: 4.0 mg/kg/injection, schedule: Q01DX011 (ip), vehicle: methylcellulose (MC)) 61 % of control; (dose: 6.0 mg/kg/injection, schedule: Q01DX011 (ip), vehicle: methylcellulose (MC)) 50 % of control; under setting [2], 57 % of control. Also, the T/C (dose: 7.0 mg/kg/injection, schedule: Q01DX011 (ip), vehicle: methylcellulose (MC)) was 48 % of control; the T/C under setting [3] is 45 % of control and 50 % of control; the T/C (dose: 14.0 mg/kg/injection, schedule: Q01DX011 (ip), vehicle: methylcellulose (MC)) was 25 % of control and 44 % of control; the T/C (dose: 28.0 mg/kg/injection, schedule: Q01DX011 (ip), vehicle: methylcellulose (MC)) was 21 % of control; the T/C (dose: 57.0 mg/kg/injection, schedule: Q01DX011 (ip), vehicle: carboxymethylcellulose (CMC)) was 66 % of control; the T/C (dose: 57.0 mg/kg/injection, schedule: Q01DX011 (ip), vehicle: methylcellulose (MC)) is 18 % of control. For the same molecule, the T/C was 63 % of control (dose: 114.0 mg/kg/injection, schedule: Q01DX011 (ip), vehicle: carboxymethylcellulose (CMC)) and 8 % of control (dose: 228.0 mg/kg/injection, schedule: Q01DX011 (ip), vehicle: carboxymethylcellulose (CMC)).
Take `C[C@@H]1C[C@H]2CC[C@H](O2)[C@H](C)C(=O)O[C@@H](C)C[C@@H]2CC[C@@H](O2)[C@@H](C)C(=O)O[C@H](C)C[C@H]2CC[C@H](O2)[C@H](C)C(=O)O[C@@H](C)C[C@@H]2CC[C@@H](O2)[C@@H](C)C(=O)O1`: the T/C is 116 % of control (dose: 2.5 mg/kg/injection, schedule: Q01DX011 (ip), vehicle: olive oil, sesame oil, peanut oil); 85 % of control (dose: 5.0 mg/kg/injection, schedule: Q01DX011 (ip), vehicle: olive oil, sesame oil, peanut oil); 96 % of control (dose: 10.0 mg/kg/injection, schedule: Q01DX011 (ip), vehicle: olive oil, sesame oil, peanut oil); 118 % of control (dose: 10.0 mg/kg/injection, schedule: Q01DX011 (sc), vehicle: olive oil, sesame oil, peanut oil); 116 % of control (dose: 18.0 mg/kg/injection, schedule: Q01DX011 (ip), vehicle: carboxymethylcellulose (CMC)); 89 % of control (dose: 19.0 mg/kg/injection, schedule: Q01DX011 (ip), vehicle: methylcellulose (MC)). The T/C is 246 % of control (dose: 19.0 mg/kg/injection, schedule: Q01DX011 (sc), vehicle: methylcellulose (MC)); 48 % of control (dose: 20.0 mg/kg/injection, schedule: Q01DX011 (ip), vehicle: olive oil, sesame oil, peanut oil); 73 % of control (dose: 20.0 mg/kg/injection, schedule: Q01DX011 (sc), vehicle: olive oil, sesame oil, peanut oil); 87 % of control (dose: 30.0 mg/kg/injection, schedule: Q01DX011 (sc), vehicle: olive oil, sesame oil, peanut oil); 98 % of control (dose: 36.0 mg/kg/injection, schedule: Q01DX011 (ip), vehicle: carboxymethylcellulose (CMC)); 159 % of control (dose: 37.5 mg/kg/injection, schedule: Q01DX011 (sc), vehicle: methylcellulose (MC)). In addition, the T/C by setting is: (dose: 40.0 mg/kg/injection, schedule: Q01DX011 (ip), vehicle: carboxymethylcellulose (CMC)) 87 % of control; (dose: 50.0 mg/kg/injection, schedule: Q01DX011 (ip), vehicle: carboxymethylcellulose (CMC)) 92 % of control; under setting [4], 89 % of control; (dose: 60.0 mg/kg/injection, schedule: Q01DX011 (sc), vehicle: olive oil, sesame oil, peanut oil) 57 % of control; (dose: 75.0 mg/kg/injection, schedule: Q01DX011 (ip), vehicle: methylcellulose (MC)) 91 % of control; (dose: 150.0 mg/kg/injection, schedule: Q01DX011 (sc), vehicle: methylcellulose (MC)) 211 % of control.
For `CCCCOC(OCCCC)C(OCCCC)OCCCC`, the T/C was 105 % of control (dose: 50.0 mg/kg/injection, schedule: Q01DX011 (ip), vehicle: other); 106 % of control (dose: 100.0 mg/kg/injection, schedule: Q01DX011 (ip), vehicle: other); 63 % of control (dose: 200.0 mg/kg/injection, schedule: Q01DX011 (ip), vehicle: other).
In the case of `Cc1cnc(SCc2ccccc2Cl)nc1N(C)C`, the T/C is 89 % of control (dose: 15.0 mg/kg/injection, schedule: Q01DX011 (ip), vehicle: methylcellulose (MC)) and 109 % of control under setting [1].
With `O=C1N(Br)C(=O)C(c2ccc(Cl)cc2)(c2ccc(Cl)cc2)N1Br`, the T/C by setting is: (dose: 1.7 mg/kg/injection, schedule: Q01DX011 (ip), vehicle: carboxymethylcellulose (CMC)) 42 % of control; (dose: 3.5 mg/kg/injection, schedule: Q01DX011 (ip), vehicle: carboxymethylcellulose (CMC)) 76 % of control; under setting [2], 91 % of control; under setting [3], 35 % of control and 39 % of control and 43 % of control; (dose: 28.0 mg/kg/injection, schedule: Q01DX011 (ip), vehicle: carboxymethylcellulose (CMC)) 35 % of control and 49 % of control; (dose: 30.0 mg/kg/injection, schedule: Q01DX011 (ip), vehicle: carboxymethylcellulose (CMC)) 22 % of control and 38 % of control. For the same molecule, the T/C (dose: 56.0 mg/kg/injection, schedule: Q01DX011 (ip), vehicle: carboxymethylcellulose (CMC)) is 20 % of control; the T/C under setting [4] was 29 % of control and 35 % of control; the T/C (dose: 112.0 mg/kg/injection, schedule: Q01DX011 (ip), vehicle: carboxymethylcellulose (CMC)) was 38 % of control; the T/C (dose: 120.0 mg/kg/injection, schedule: Q01DX011 (ip), vehicle: carboxymethylcellulose (CMC)) was 14 % of control.
As for `CN(C)S(=O)(=O)c1nc2nc[nH]c2c(=O)[nH]1`, the T/C reads like this: (dose: 25.0 mg/kg/injection, schedule: Q01DX011 (ip), vehicle: carboxymethylcellulose (CMC)) 70 % of control; (dose: 75.0 mg/kg/injection, schedule: Q01DX011 (ip), vehicle: carboxymethylcellulose (CMC)) 66 % of control; (dose: 225.0 mg/kg/injection, schedule: Q01DX011 (ip), vehicle: carboxymethylcellulose (CMC)) 85 % of control.

The T/C is the result in the treated group divided by that in the control group, in per cent.
